PMC10746543, “Design principles for cyclin K molecular glue degraders” (Nature Chemical Biology, 2023)
Where “and” joins values, the source holds several entries; their conditions need not be identical. Equal entries are not always repeated. Where two headings read alike, the source gives them in different places.

How the values were obtained:
CDK12–cyclin K and DDB1 = target: T1, CDK12–cyclin K and DDB1 (Homo sapiens, UniProt Q16531+Q9NYV4, K965R); assay: TR-FRET ternary complex formation assay (compound titration); format: binding; conditions: for TR-FRET signal at compound concentration 4.68 nM / TR-FRET signal at compound concentration 21.6 nM / TR-FRET signal at compound concentration 36 nM / TR-FRET signal at compound concentration 79.2001 nM / TR-FRET signal at compound concentration 158.4 nM / TR-FRET signal at compound concentration 309.6 nM / TR-FRET signal at compound concentration 626.401 nM / TR-FRET signal at compound concentration 1252.8 nM / TR-FRET signal at compound concentration 2448 nM / TR-FRET signal at compound concentration 9936.01 nM / TR-FRET signal at compound concentration 20016 nM: raw replicate titration data
T1 construct: His6–CDK12 (a.a. 713–1,052); full-length or beta-propeller B domain deletion (ΔBPB: a.a. 396–705 deleted) constructs of His6–DDB1ΔBPB, StrepII–Avi–DDB1, or His6–Spy–DDB1; made in house; host or cells: Trichoplusia ni High Five insect cells (baculovirus)
T1 sequence (Q9NYV4 713-1052 K965R): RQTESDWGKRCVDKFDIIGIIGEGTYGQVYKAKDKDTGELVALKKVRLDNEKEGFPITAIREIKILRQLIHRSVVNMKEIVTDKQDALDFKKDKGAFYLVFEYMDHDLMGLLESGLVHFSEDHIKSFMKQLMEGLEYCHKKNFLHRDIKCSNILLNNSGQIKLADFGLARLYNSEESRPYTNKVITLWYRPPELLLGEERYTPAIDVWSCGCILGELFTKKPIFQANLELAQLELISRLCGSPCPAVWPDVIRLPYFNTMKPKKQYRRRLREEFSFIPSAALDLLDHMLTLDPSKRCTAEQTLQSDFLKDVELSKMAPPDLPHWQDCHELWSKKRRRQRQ
T1 sequence (O75909 1-267 partner): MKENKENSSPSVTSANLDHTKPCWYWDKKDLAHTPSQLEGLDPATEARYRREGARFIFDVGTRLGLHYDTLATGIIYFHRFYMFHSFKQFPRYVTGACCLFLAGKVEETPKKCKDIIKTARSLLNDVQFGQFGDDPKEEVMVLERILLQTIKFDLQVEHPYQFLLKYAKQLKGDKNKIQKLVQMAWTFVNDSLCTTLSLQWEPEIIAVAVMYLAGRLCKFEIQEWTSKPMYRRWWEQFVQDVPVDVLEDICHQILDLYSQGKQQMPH
T1 sequence (Q16531 whole entry): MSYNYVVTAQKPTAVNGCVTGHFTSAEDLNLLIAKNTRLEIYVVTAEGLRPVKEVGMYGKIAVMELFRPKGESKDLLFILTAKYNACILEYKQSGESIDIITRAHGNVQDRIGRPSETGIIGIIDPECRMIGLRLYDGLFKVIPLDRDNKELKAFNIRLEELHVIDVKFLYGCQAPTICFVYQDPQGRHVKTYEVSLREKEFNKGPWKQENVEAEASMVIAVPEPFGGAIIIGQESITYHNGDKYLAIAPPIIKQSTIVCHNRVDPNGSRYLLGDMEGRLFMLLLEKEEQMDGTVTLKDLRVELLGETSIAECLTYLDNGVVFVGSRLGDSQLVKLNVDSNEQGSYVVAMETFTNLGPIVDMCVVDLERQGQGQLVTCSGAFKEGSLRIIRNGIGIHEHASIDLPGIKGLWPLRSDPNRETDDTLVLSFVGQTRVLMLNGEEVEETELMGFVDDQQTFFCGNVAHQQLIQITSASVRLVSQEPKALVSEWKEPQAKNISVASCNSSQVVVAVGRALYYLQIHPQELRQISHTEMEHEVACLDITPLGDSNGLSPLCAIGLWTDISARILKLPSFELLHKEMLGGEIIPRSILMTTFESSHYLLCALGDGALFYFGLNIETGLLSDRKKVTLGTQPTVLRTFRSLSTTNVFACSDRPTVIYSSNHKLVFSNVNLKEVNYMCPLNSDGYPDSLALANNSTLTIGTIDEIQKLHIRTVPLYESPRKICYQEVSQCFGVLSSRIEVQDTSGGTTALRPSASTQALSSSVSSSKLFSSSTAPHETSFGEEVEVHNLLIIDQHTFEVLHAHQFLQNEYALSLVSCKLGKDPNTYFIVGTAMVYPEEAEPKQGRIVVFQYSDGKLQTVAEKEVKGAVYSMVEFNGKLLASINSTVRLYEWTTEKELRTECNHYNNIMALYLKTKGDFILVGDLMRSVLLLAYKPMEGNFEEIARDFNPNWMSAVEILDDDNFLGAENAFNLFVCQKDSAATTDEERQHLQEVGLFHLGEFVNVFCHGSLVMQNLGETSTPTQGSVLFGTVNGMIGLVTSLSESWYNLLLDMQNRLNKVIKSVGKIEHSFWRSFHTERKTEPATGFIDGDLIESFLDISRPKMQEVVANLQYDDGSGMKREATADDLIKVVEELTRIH
How it was run: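 Read-out used a 70 μs delay to cut background fluorescence; TR-FRET signal taken as the 520 nm/490 nm emission ratio.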

[1] = tested on: cyclin K–eGFP degradation reporter; assay: Cyclin K reporter stability analysis (dual-color cyclin K–eGFP reporter); format: cell-based, human; conditions: Supplementary Table 2; HEK293T cycK-eGFP reporter, 5 h; read-out: Cellular assays DC50
How it was run: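 Readout was the eGFP-to-mCherry geometric-mean ratio by flow cytometry, normalized to three DMSO controls, after 5 h drug exposure. Cells used were HEK293T–Cas9 expressing the dual-colour cyclin K–eGFP degradation reporter.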

HEK293T cells = assay: Drug sensitivity assay (CellTiter-Glo viability) with or without MLN4924 pretreatment; format: cell-based, human; conditions: Supplementary Table 2; for EC50: Homo sapiens, HEK-293T, HEK293T viability, 72 h, compound alone, read-out: Cellular assays EC50; for Toxicity rescue: MLN4924-mediated cytotoxicity rescue, 10 µM used where n.d.
How it was run: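 HEK293T–Cas9 cells at 0.15 × 10^6 ml^−1 were treated with DMSO or 100 nM MLN4924 before plating. Test drugs were added 2 h later and exposure lasted 3 days. Viability was read by CellTiter-Glo luminescence and expressed relative to DMSO controls.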

CDK12–cyclin K = CDK12–cyclin K (Homo sapiens, UniProt Q9NYV4); assay: Lanthascreen kinase binding assay, CDK12; conditions: for Lanthascreen raw signal, sheet CDK12: series r37, duplicates
Chain of CDK12–cyclin K (Q9NYV4 713-1052): as the sequence (Q9NYV4 713-1052 K965R) above, with R253K counted along it
Chain of CDK12–cyclin K (O75909 1-267 partner limits assumed): as the sequence (O75909 1-267 partner) above
Protocol: (§1) Lanthascreen experiments were performed using commercially available reagents (Thermo Fisher) and according to the manufacturer’s instructions.

CDK9–cyclin T = target: T2, CDK9–cyclin T (Homo sapiens, UniProt P50750); assay: Lanthascreen kinase binding assay, CDK9; conditions: for Lanthascreen TR-FRET signal (raw ratio), sheet CDK9: third titration set (r25), duplicates
T2 construct: purchased Thermo Fisher
T2 sequence (P50750 whole entry): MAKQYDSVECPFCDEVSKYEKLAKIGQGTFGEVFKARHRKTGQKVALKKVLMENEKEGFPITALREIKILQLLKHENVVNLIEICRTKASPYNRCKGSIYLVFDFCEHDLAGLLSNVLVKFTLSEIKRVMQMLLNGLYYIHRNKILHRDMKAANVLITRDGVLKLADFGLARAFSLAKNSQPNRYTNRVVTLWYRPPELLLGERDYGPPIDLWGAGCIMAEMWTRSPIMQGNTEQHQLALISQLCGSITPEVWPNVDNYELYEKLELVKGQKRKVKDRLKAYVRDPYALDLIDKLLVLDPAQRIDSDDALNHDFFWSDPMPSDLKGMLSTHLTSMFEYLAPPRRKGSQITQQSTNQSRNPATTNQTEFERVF
T2 sequence (O60563 whole entry partner): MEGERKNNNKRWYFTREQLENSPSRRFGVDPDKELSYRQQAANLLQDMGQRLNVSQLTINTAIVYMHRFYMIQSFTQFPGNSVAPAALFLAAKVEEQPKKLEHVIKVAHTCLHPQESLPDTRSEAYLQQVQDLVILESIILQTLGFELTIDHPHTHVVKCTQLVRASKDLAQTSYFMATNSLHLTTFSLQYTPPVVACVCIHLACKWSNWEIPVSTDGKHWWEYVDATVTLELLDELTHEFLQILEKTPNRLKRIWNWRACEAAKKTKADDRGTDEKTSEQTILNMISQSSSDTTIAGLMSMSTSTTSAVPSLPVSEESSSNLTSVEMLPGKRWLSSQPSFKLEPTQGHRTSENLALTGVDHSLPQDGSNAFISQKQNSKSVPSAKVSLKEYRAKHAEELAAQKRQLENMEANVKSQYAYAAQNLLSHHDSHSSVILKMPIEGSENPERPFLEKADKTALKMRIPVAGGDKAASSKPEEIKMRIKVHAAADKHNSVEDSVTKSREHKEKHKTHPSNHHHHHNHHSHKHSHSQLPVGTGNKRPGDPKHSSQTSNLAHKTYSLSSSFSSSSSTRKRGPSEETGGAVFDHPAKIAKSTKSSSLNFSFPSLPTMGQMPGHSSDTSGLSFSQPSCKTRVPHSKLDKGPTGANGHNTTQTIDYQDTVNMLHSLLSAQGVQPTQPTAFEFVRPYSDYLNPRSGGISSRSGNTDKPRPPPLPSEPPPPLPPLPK
Protocol: as §1

CDK2–cyclin A = target: T3, CDK2–cyclin A (Homo sapiens, UniProt P24941); assay: Lanthascreen kinase binding assay, CDK2; conditions: for Lanthascreen signal, sheet CDK2: raw replicates, experiment r36-r46
T3 construct: purchased Thermo Fisher
Protocol: as §1

CC[C@H](CO)Nc1nc(NCc2ccc(-c3ccccn3)cc2)c2ncn(-c3cnn(C)c3)c2n1 [DS20]
TR-FRET signal at compound concentration 4.68 nM (CDK12–cyclin K and DDB1): 0.1341 and 0.1393 | TR-FRET signal at compound concentration 21.6 nM (CDK12–cyclin K and DDB1): 0.1505 and 0.1671 | TR-FRET signal at compound concentration 36 nM (CDK12–cyclin K and DDB1): 0.1763 and 0.1953 | TR-FRET signal at compound concentration 79.2001 nM (CDK12–cyclin K and DDB1): 0.2244 and 0.2373 | TR-FRET signal at compound concentration 158.4 nM (CDK12–cyclin K and DDB1): 0.3075 and 0.3209 | TR-FRET signal at compound concentration 309.6 nM (CDK12–cyclin K and DDB1): 0.4615 and 0.4691 | TR-FRET signal at compound concentration 626.401 nM (CDK12–cyclin K and DDB1): 0.7336 and 0.7393 | TR-FRET signal at compound concentration 1252.8 nM (CDK12–cyclin K and DDB1): 1.129 and 1.14 | TR-FRET signal at compound concentration 2448 nM (CDK12–cyclin K and DDB1): 1.631 and 1.657 | TR-FRET signal at compound concentration 9936.01 nM (CDK12–cyclin K and DDB1): 2.437 and 2.497 | TR-FRET signal at compound concentration 20016 nM (CDK12–cyclin K and DDB1): 2.527 and 2.638 | DDB1–CDK12 complex formation, result in words (CDK12–cyclin K and DDB1; in vitro TR-FRET): poorer glues | EC50 (CDK12–cyclin K and DDB1; sheet MOESM7, read-out: log TR-FRET EC50 (converted)): 1.84 µM | DC50 [1]: > 10 µM | EC50 (HEK293T cells): > 10 µM | Toxicity rescue (HEK293T cells): 0% | IC50 (CDK12–cyclin K; Lanthascreen, average, Extended Data Fig. 8, read-out: CDK12 IC50): > 10000 nM | IC50 (CDK12–cyclin K; Supplementary Table 2, read-out: Lanthascreen IC50 [nM] CDK12): > 10000 nM | Lanthascreen raw signal, sheet CDK12 (CDK12–cyclin K; compound 0.038147 nM): 0.01392 and 0.01331 | Lanthascreen raw signal, sheet CDK12 (CDK12–cyclin K; compound 0.152588 nM): 0.01475 and 0.01452 | Lanthascreen raw signal, sheet CDK12 (CDK12–cyclin K; compound 0.610352 nM): 0.01495 | Lanthascreen raw signal, sheet CDK12 (CDK12–cyclin K; compound 9.76563 nM): 0.01647 and 0.01469 | Lanthascreen raw signal, sheet CDK12 (CDK12–cyclin K; compound 39.0625 nM): 0.0142 and 0.01474 | Lanthascreen raw signal, sheet CDK12 (CDK12–cyclin K; compound 156.25 nM): 0.01388 and 0.01469 | Lanthascreen raw signal, sheet CDK12 (CDK12–cyclin K; compound 625 nM): 0.01464 and 0.015 | Lanthascreen raw signal, sheet CDK12 (CDK12–cyclin K; compound 2500 nM): 0.01337 and 0.01367 | Lanthascreen raw signal, sheet CDK12 (CDK12–cyclin K; compound 10000 nM): 0.01057 and 0.01115 | IC50 (CDK9–cyclin T; Supplementary Table 2, read-out: Lanthascreen IC50 [nM] CDK9): 3200 nM | Lanthascreen TR-FRET signal (raw ratio), sheet CDK9 (CDK9–cyclin T; compound 0.038147 nM): 0.01966 and 0.01664 | Lanthascreen TR-FRET signal (raw ratio), sheet CDK9 (CDK9–cyclin T; compound 0.152588 nM): 0.02094 and 0.01978 | Lanthascreen TR-FRET signal (raw ratio), sheet CDK9 (CDK9–cyclin T; compound 0.610352 nM): 0.02169 and 0.01748 | Lanthascreen TR-FRET signal (raw ratio), sheet CDK9 (CDK9–cyclin T; compound 9.76563 nM): 0.02175 and 0.01903 | Lanthascreen TR-FRET signal (raw ratio), sheet CDK9 (CDK9–cyclin T; compound 39.0625 nM): 0.02145 and 0.01745 | Lanthascreen TR-FRET signal (raw ratio), sheet CDK9 (CDK9–cyclin T; compound 156.25 nM): 0.02109 and 0.01723 | Lanthascreen TR-FRET signal (raw ratio), sheet CDK9 (CDK9–cyclin T; compound 625 nM): 0.02056 and 0.01753 | Lanthascreen TR-FRET signal (raw ratio), sheet CDK9 (CDK9–cyclin T; compound 2500 nM): 0.01726 and 0.0135 | Lanthascreen TR-FRET signal (raw ratio), sheet CDK9 (CDK9–cyclin T; compound 10000 nM): 0.01114 and 0.009536 | Lanthascreen signal, sheet CDK2 (CDK2–cyclin A; Compound 0.038147 nM): 0.01372 and 0.01355 | Lanthascreen signal, sheet CDK2 (CDK2–cyclin A; Compound 0.152588 nM): 0.01402 and 0.01425 | Lanthascreen signal, sheet CDK2 (CDK2–cyclin A; Compound 0.610352 nM): 0.0137 and 0.01464 | Lanthascreen signal, sheet CDK2 (CDK2–cyclin A; Compound 9.76563 nM): 0.01391 and 0.01419 | Lanthascreen signal, sheet CDK2 (CDK2–cyclin A; Compound 39.0625 nM): 0.01392 and 0.01397 | Lanthascreen signal, sheet CDK2 (CDK2–cyclin A; Compound 156.25 nM): 0.01435 and 0.01404 | Lanthascreen signal, sheet CDK2 (CDK2–cyclin A; Compound 625 nM): 0.01359 and 0.01432 | Lanthascreen signal, sheet CDK2 (CDK2–cyclin A; Compound 2500 nM): 0.01402 and 0.01364 | Lanthascreen signal, sheet CDK2 (CDK2–cyclin A; Compound 10000 nM): 0.01203 and 0.01167 | IC50 (CDK2–cyclin A; Lanthascreen, average, Extended Data Fig. 8, read-out: CDK2 IC50): > 10000 nM | IC50 (CDK2–cyclin A; Supplementary Table 2, read-out: Lanthascreen IC50 [nM] CDK2): > 10000 nM

CN1CC[C@H](c2c(O)cc(O)c3c(=O)cc(-c4ccccc4Cl)oc23)[C@H](O)C1 [Flavopiridol, reference compound]
TR-FRET signal at compound concentration 4.68 nM (CDK12–cyclin K and DDB1): 0.2594 and 0.2805 and 0.1719 and 0.175 | TR-FRET signal at compound concentration 21.6 nM (CDK12–cyclin K and DDB1): 0.4135 and 0.429 and 0.2939 and 0.3262 | TR-FRET signal at compound concentration 36 nM (CDK12–cyclin K and DDB1): 0.6079 and 0.623 and 0.4905 and 0.5031 | TR-FRET signal at compound concentration 79.2001 nM (CDK12–cyclin K and DDB1): 0.8256 and 0.8685 and 0.6858 and 0.596 | TR-FRET signal at compound concentration 158.4 nM (CDK12–cyclin K and DDB1): 0.9273 and 1.013 and 0.793 and 0.779 | TR-FRET signal at compound concentration 309.6 nM (CDK12–cyclin K and DDB1): 0.9662 and 1.065 and 0.8707 and 0.8846 | TR-FRET signal at compound concentration 626.401 nM (CDK12–cyclin K and DDB1): 1.035 and 1.155 and 0.9082 and 0.902 | TR-FRET signal at compound concentration 1252.8 nM (CDK12–cyclin K and DDB1): 1.099 and 1.27 and 0.978 and 0.9866 | TR-FRET signal at compound concentration 2448 nM (CDK12–cyclin K and DDB1): 1.138 and 1.2612 and 0.9975 and 0.9532 | TR-FRET signal at compound concentration 9936.01 nM (CDK12–cyclin K and DDB1): 1.131 and 1.306 and 0.9937 and 0.9375 | TR-FRET signal at compound concentration 20016 nM (CDK12–cyclin K and DDB1): 1.0554 and 1.222 and 0.9378 and 0.9067 | DC50 [1]: > 10 µM | EC50 (HEK293T cells): 0.395 µM | Toxicity rescue (HEK293T cells): 1%
